Experimental data: patent US20250041227A1, “TABLET FORMULATIONS OF RBP4 INHIBITORS AND METHODS OF USE” (BELITE BIO, INC, priority 2021, published 2025)

Tested on: male cynomolgus monkeys
Test: In-life clinical observations (tolerability)
Assay type: in vivo
Details: single PO 5 mg/animal per phase, 6 phases
From the text: The test system and study design were as follows. A total of 4 male non-naïve cynomolgus monkeys were assigned to the study (age: >2 years old and body weight: 2.5-4 kg). Each animal received a single dose of capsule or tablet at the start of each phase and there were 6 phases in total. The same animals, Animal Nos. C1001, C1002, C1003 and C1004, were used for each phase with a minimum 5-day washout period between dosing for each phase, except for Animal No. C1002, Animal Tattoo No. C1708339, which was replaced by another non-naïve cynomolgus monkey, Animal Tattoo No. C1703319, due to dosing failure that happened in Phase 3. As a result, Animal Tattoo No. C1708339 was used in Phase 1 and 2, Animal Tattoo No. C1703319 was used in Phases 3 to 6. All animals were fasted overnight prior to dosing, food was returned at 4 hours post-dose.
Animals were physically examined prior to study initiation to confirm their health. Clinical observations were performed twice daily (approximately 9:30 a.m. and 4:00 p.m.). Cage-side observations for general health and appearance were also performed. On dosing day, animals were also observed before and after each sample collection time point. General condition, behavior, activity, excretion, respiration or other unusual observations noted throughout the study were recorded.

For `CC(=O)N1CCc2c(C(=O)N3CCC(c4ccc(F)c(F)c4C(F)(F)F)CC3)n[nH]c2C1` [Compound 1, 1-(3-(4-(3,4-difluoro-2-(trifluoromethyl)phenyl)piperidine-1-carbonyl)-1,4,5,7-tetrahydro-6H-pyrazolo[3,4-c]pyridin-6-yl)ethan-1-one], the “adverse effects during the in-life phase” value was “No adverse effects were observed”.
